Test results taken from US7153525B1, “Microemulsions as precursors to solid nanoparticles” (The University of Kentucky Research Foundation, priority 2000, dated 2006).

Experiments:
[1] = Droplet and particle size by photon correlation spectroscopy; format: physicochemical
Experimental: Modeling of E/F microemulsions: An ethanol-in-fluorocarbon(E/F) microemulsion was made having the following components: perflubron (0.7382 g), PDFOA (0.3195 g), and ethanol (0.3603 g). The weight of ethanol corresponded to 25.4% w/w of the final microemulsionor 65.7% of the microemulsion window (see FIG. 2). The average droplet size of 34.9 nm determined by photon correlation spectroscopy (dynamic light scattering at 11.3° for 300 seconds) agreed very well with the predicted ethanol droplet size based on simple mathematical modeling of surfactant-coated ethanol droplets. The total surface area of ethanol droplets that have an average diameter of 34.9 nm can be calculated in a series of equations as follows: Volume of one ethanol droplet=πd^3/6=2.226×10^−17 cm^3 (Equation 1) Total number of ethanol droplets=(0.3603 g[…])/[…]=1.989×10^16 droplets (Equation 2) Total surface area of each droplet=πd^2=3.827×10^−11 cm^2 (Equation 3) Total surface area of all ethanol droplets=1.989×10^16 droplets*3.827×10^−11 cm^2=760966 cm^2. (Equation 4) If we assume that PDFOA head-group (Mw 414.06 g/mol) occupies a space of 30 Å^2, then we can calculate the number of PDFOA molecules needed to cover the total surface area of all ethanol droplets from Equation 4 as: Total number of PDFOA molecules needed to cover the total surface area of all ethanol droplets=760966 cm^2/30×10^−16 cm^2=2.537×10^20 molecules of PDFOA. (Equation 5) Thus, 2.537×10^20 molecules of PDFOA would theoretically be needed to coat all of the surface area provided by all of the ethanol droplets. The ratio of ethanol to PDFOA molecules 65.7% through the microemulsion window was 10:1. […] The actual amount of PDFOA used to prepare the microemulsion was 0.3195 g which was within 3% of the predicted amount (0.3195 g/0.3282 g=0.973 or 97.3%) based on the measured droplet size of ethanol. Thus, this simple modeling supports the formation of a E/F microemulsion as well as the particle sizing method used.
To determine the existence of an oil-in-water microemulsion window for the microemulsion precursor, exactly two (2) milligrams of emulsifying wax were weighed accurately into ten separate 7-mL glass vials and melted at 50° C. on a temperature calibrated magnetic hot plate. Water (0.2 μm filtered) was then added (750–1000 μL) to form a homogeneous milky slurry in the stirring water at 50° C. To form the microemulsion precursor, the surfactant polyoxy 20 stearyl ether (100 mM) in water was added (0–250 μL) so that the final surfactant concentration ranged from 0 mM to 25 mM in the ten vials. The microemulsion precursor was then removed from heat (52–54° C.) and allowed to cool to 25° C. while stirring. […] Thus, an apparent microemulsion window was defined. One hundred (100) μL of each cooled system was taken and diluted with 900 μL water. The particle size of the diluted solid nanoparticles was determined using a Coulter N4 Plus Sub-Micron Particle Sizer at 20° C. by scattering light at 90° for 120 seconds. The particle sizes of systems with no surfactant added could not be determined since the systems contained precipitates that were greater than 3000 nm in diameter. […] To determine if the measured droplet sizes in either the microemulsion nanotemplate or the cured solid nanoparticles were due to the presence of surfactant micelles, samples were made as described above with no emulsifying wax and with final surfactant concentrations ranging from 0 mM to 100 mM in water. […] It is likely that the relatively heterogeneous nature of the polymeric surfactant makes the determination of its CMC difficult using conventional techniques. Photon correlation spectroscopy, using a Coulter N4 Plus Submicron Particle Sizer, was used to determine the existence and the size of the surfactant micelles.
Preparation of cationic nanoparticles made from microemulsion precursors: Exactly 2 mg of emulsifying wax was placed into six 7-ml glass scintillation vials. […]

[2] = Pseudo-phase diagram fluorosurfactant screen: ethanol incorporation in E/F microemulsions; format: physicochemical; details: maximum ethanol in stable clear E/F microemulsion
Experimental: Pseudo-Phase Diagrams: Fluorosurfactant Screen. Studies focused on E/F microemulsions that allowed for maximum solubilization of ethanol. […] Briefly, a small amount of ethanol was added to defined perflubron (X %)/(fluorosurfactant) (100-X %) mixtures in an attempt to solubilize ethanol and define the microemulsion window (i.e., portion of diagram that represents a clear system). […] While the mixture was stirring, ethanol was added in 5 μL (=[…] ethanol) aliquots. The clarity (transparency) of the systems as a function of the percentages of the three phases was plotted in order to define the microemulsion window, if any. This screen was repeated for each of the fluorosurfactant candidates.

[3] = Solubility of fluorosurfactants in perflubron; details: PDFOA at 25° C.

In the case of “ASF-pal: asialofetuin derivatized with about 12 palmitate arms per molecule, hepatocyte-specific ligand”, the “Size of micelles formed alone in water” value ([1]; 67 μg/mL) is reported as 3–15 nm, the “Size of larger aggregates formed alone in water” value ([1]; 1340 μg/mL) is reported as 40–300 nm and the “Size of micelles formed alone in water” value ([1]; 1340 μg/mL) is reported as 3–10 nm. For the same molecule, the “Effect of adding ASF-pal on particle size of cured nanoparticles” value ([1]; ASF-pal added to 200 μg nanoparticles per mL, 1 hour at 25° C.) was “only a small effect”.

With `O=C(O)C(F)(F)C(F)(F)C(F)(F)C(F)(F)C(F)(F)C(F)(F)C(F)(F)C(F)(F)C(F)(F)C(F)(F)C(F)(F)F` [Perfluorododecanoicacid (D7), Perfluorododecanoicacid] the “Final (Ethanol) % w/w Solubilized in Perflubron/Fluorosurfactant (70/3 w/w)” value [2] was 59.2 % w/w.

In the case of `O=C(O)C(F)(F)C(F)(F)C(F)(F)C(F)(F)C(F)(F)C(F)(F)C(F)(F)F` [PDFOA, Pentadecafluorooctanoicacid], the “Final (Ethanol) % w/w Solubilized in Perflubron/Fluorosurfactant (70/3 w/w)” value [2] is reported as “up to 37.2 % w/w”, the “Final (Ethanol) % w/w Solubilized in Perflubron/Fluorosurfactant (70/3 w/w)” value ([2]; listed as Pentadecafluorooctanoicacid (PDFOA)) is reported as 37.2 % w/w and the Solubility in perflubron [3] is reported as “did not dissolve”.

In the case of `COC(=O)C(F)(F)C(F)(F)C(F)(F)C(F)(F)C(F)(F)C(F)(F)C(F)(F)F` [D8, Pentadecafluoromethyloctanoate], the Solubility in perflubron [3] is reported as “soluble”.

With `OCCC(F)(F)C(F)(F)C(F)(F)C(F)(F)C(F)(F)C(F)(F)F` [D3, Tridecafluoro-1-octanol] the Solubility in perflubron [3] was “soluble”.

In the case of `O=C(O)C(F)(F)C(F)(F)C(F)(F)C(F)(F)C(F)(F)C(F)(F)F` [D5, Tridecafluoroheptanoicacid], the Solubility in perflubron [3] is reported as “soluble”.

For `CC(=O)C=C(C)[O-].CC(=O)C=C(C)[O-].CC(=O)C=C(C)[O-].[Gd+3]` [GdAcAc, Gadolinium acetylacetonate], the “Effect of GdAcAc entrapment on particle sizes of cured nanoparticles” value ([1]; 0.1 mg to 1 mg in emulsifying wax and Brij 72 nanoparticles (2 mg/mL)) was “little or no effect” and the “Particle size of cured nanoparticles” value ([1]; cooled to 25° C.) was “about 50 nm”.

With `O=C(O)C(F)(F)C(F)(F)C(F)(F)C(F)(F)C(F)(F)C(F)(F)C(F)(F)C(F)(F)C(F)(F)C(F)(F)C(F)(F)C(F)(F)C(F)(F)F` [Perfluorotetradecanoicacid (D6), Perfluorotetradecanoicacid] the “Final (Ethanol) % w/w Solubilized in Perflubron/Fluorosurfactant (70/3 w/w)” value [2] was 66.6 % w/w.
